# According to patent US11385220B2, “Methods for measuring oxidative stress in human body fluids” (CHUNGDO PHARM. CO., LTD, priority 2017, dated 2022):
# What was measured:
# [1] = Solubility of TBA in solvent with or without DMSO; type: physicochemical
# Procedure: In the prior art (Korean Patent Laid-open No. 10-2013-0088623), the amount of TBA added was only 2 to 3%.
# In the conventional published Patent No. 10-2013-0088623, the addition of 2 to 3 parts by weight of 1,3-diethyl-2-thiobarbituric acid (TBA) was determined to be an appropriate concentration with respect to 100 parts by weight of distilled water due to the solubility problem of TBA thereof. However, in the present invention, the solubility problem of TBA is solved by adding DMSO. By adding DMSO, 3.5 parts or more by weight of TBA can be dissolved in 100 parts by weight of distilled water or ethanol.
# In the present example, DMSO (dimethyl sulfoxide) was added to the TBA solution. […] DMSO is an important solvent that dissolves both polar and nonpolar compounds, and can be used in combination with various organic solvents as well as water.
# It was difficult to dissolve TBA in an amount of 3.5 parts by weight or more based on 100 parts by weight of the solvent in accordance with the method of the conventional art disclosed in published Patent No. 10-2013-0088623, and although dissolved, TBA was precipitated during the process.
# [2] = Crystallization of TBA-containing solution depending on amount of DMSO added (test paper, room temperature); type: physicochemical; conditions: test paper immersed in TBA solution, standing at room temperature, increasing amount of DMSO (FIG. 1)
# Excerpt: FIG. 1 is an image showing crystallization of a solution containing TBA as a color indicator depending on the amount of DMSO added.
smiles,measurement,setting,value
"CCN1C(=O)CC(=O)N(CC)C1=S [TBA, 1,3-diethyl-2-thiobarbituric acid]",TBA dissolved in distilled water,"[1]; distilled water, no DMSO",not dissolved in distilled water
same,TBA dissolved in ethanol,"[1]; ethanol, no DMSO",about 3.5%
same,amount of TBA that can be dissolved by the conventional method,"[1]; per 100 parts by weight of solvent, no DMSO (method of KR 10-2013-0088623), precipitated during the process",< 3.5 parts by weight
same,TBA recrystallization,[2],TBA recrystallization decreased
